Laboratory results: patent US20210322508A1, “PEPTIDES AND COMPOSITIONS FOR TARGETED TREATMENT AND IMAGING” (SIGNABLOK, INC., priority 2018, published 2021)
Residues, ends and D or L forms follow the SMILES beside them.

Tests used:
[1] = tested on: LPS-stimulated macrophages; experiment: cytokine production by LPS-stimulated macrophages; assay type: cell-based, murine; conditions: 24 h at 37° C.; for cytokine release by LPS-stimulated macrophages in the presence of HDL: with HDL
Description: FIG. 33 presents exemplary data showing cytokine production by LPS-stimulated macrophages incubated for 24 h at 37° C. with GF9, G-TE21, G-HV21 and G-KV21 in the presence of HDL.

[2] = tested on: human non-small cell lung cancer H292 xenograft; experiment: H292 xenograft mouse model; assay type: in vivo, mice; conditions: vs vehicle
Source text: PTX, paclitaxel. ****, P<0.0001 as compared with vehicle-treated animals.
PTX, paclitaxel. ****, p<0.0001 as compared with vehicle-treated animals.
Abbreviations: PTX, paclitaxel; PBS, phosphate-buffer saline.

[3] = tested on: LPS-stimulated J774A.1 macrophages (TNF-alpha, IL-6, IL-1beta); experiment: In vitro cytokine release by LPS-stimulated macrophages; assay type: cell-based, mouse; conditions: 10 ng/ml after pre-incubation with HDL; LPS 1 μg/ml, 24 h
Description: (§1) The BALB/c murine macrophage cell line J774A.1 (ATCC TIB-67) were obtained from the American Type Culture Collection (ATCC, Manassas, Va.). Macrophages were cultured in 48-well plates (Corning, Cambridge, Mass.) for 24 h at 37° C. in the presence of LPS (1 μg/ml, Escherichia coli 055:B5, Sigma) in combination with 10 ng/ml peptides either pre-incubated or not with HDL. Cell-free supernatants were harvested and stored at −20° C. for later cytokine quantification. TNF-alpha, IL-6, and IL-1beta were assayed using commercial ELISA kits (Pierce Biotechnology, Thermo Scientific, Rockford, Ill.) according to the recommendations of the manufacturer. Results were represented as the mean±S.D. of three independent experiments. Statistical significances in in vitro macrophage uptake assay were determined by two-tailed Student's t test.
as §1, with “Macrophages were cultured in 48-well plates (Corning, Cambridge, Mass.) for 24 h at 37° C. in the presence of LPS (1 μg/ml, Escherichia coli 055:B5, Sigma) in combination with 10 ng/ml peptides either pre-incubated or not with HDL.” left out

[4] = tested on: C57BL/6J neonatal mice with oxygen-induced retinopathy; experiment: Oxygen-induced retinopathy (OIR): pathological retinal neovascularization; assay type: in vivo
Description: Litters of C57BL/6J (Jackson Laboratory, Bar Harbor, Me.) neonatal mice and nursing dams were exposed to a hyperoxia environment (75% oxygen) from postnatal day 7 (P7) to P12 and returned to normoxia until P17. The hyperoxia exposure causes degeneration of the immature retinal vessels. […] Beginning on P7, mice were treated until day P17 by daily i.p. injections of GF9, GF9-SLP, TREM-1/TRIOPEP-sSLP or vehicle (phosphate-buffered saline, pH 7.4; PBS). […] In another subset of experiments, rho B-labeled Gd-containing sSLP were used to confirm the ability of these targeted SLP to cross the BRB in other species (rats and rabbits). In another subset of experiments, neonatal mice and nursing dams were not subjected to a hyperoxia environment and reared in room air (RA). […]
Treatment effects on vaso-obliteration and pathological angiogenesis were assessed by morphometric analysis of the avascular and neovascularization areas in retinal flat mounts after labeling with isolectin B4 as described in Patel, et al. Am J Pathol 2014, 184:3040-3051. […] After washing 3 times with PBS, the images were captured with a 20× lens using a Zeiss Axioplan2 fluorescence microscope (Carl Zeiss Meditec, Inc., Dublin, Calif.). Intravitreal neovascular formation and avascular area were measured as described in Connor, et al. Nat Protoc 2009, 4:1565-1573. […]

Row | Compound | cytokine release by LPS-stimulated macrophages in the presence of HDL [1] | cytokine production by LPS-stimulated macrophages in the absence of HDL ([1]; without HDL) | tumor growth [2] | production of cytokines by LPS-stimulated macrophages [3] | reduction of pathological RNV ([4]; free peptides, daily i.p. P7-P17 at indicated doses) | toxicity / tolerability in mouse litters ([4]; mouse, in vivo)
1 | CC(C)C[C@H](NC(=O)[C@H](Cc1ccccc1)NC(=O)CN)C(=O)N[C@@H](CO)C(=O)N[C@@H](CCCCN)C(=O)N[C@@H](CO)C(=O)N[C@@H](CC(C)C)C(=O)N[C@H](C(=O)N[C@@H](Cc1ccccc1)C(=O)NCC(=O)N[C@@H](CCC(=O)O)C(=O)N[C@@H](CCC(=O)O)C(=O)N[C@@H](CC[S+](C)[O-])C(=O)N[C@@H](CCCNC(=N)N)C(=O)N[C@@H](CC(=O)O)C(=O)N[C@@H](CCCNC(=N)N)C(=O)N[C@@H](C)C(=O)N[C@@H](CCCNC(=N)N)C(=O)N[C@@H](C)C(=O)N[C@@H](Cc1c[nH]cn1)C(=O)N[C@H](C(=O)O)C(C)C)C(C)C (stereo partly drawn) [G-HV21] (HELM PEPTIDE1{G.F.L.S.K.S.L.V.F.G.E.E.[CS(=O)CC[C@H](N[*:1])C(=O)[*:2]].R.D.R.A.R.A.H.V}$$$$V2.0) | significantly inhibit the cytokine release | does not affect the cytokine production | significantly inhibit the tumor growth | inhibit production of cytokines by LPS-stimulated macrophages | – | –
2 | CC(C)C[C@H](NC(=O)[C@H](Cc1ccccc1)NC(=O)CN)C(=O)N[C@@H](CO)C(=O)N[C@@H](CCCCN)C(=O)N[C@@H](CO)C(=O)N[C@@H](CC(C)C)C(=O)N[C@H](C(=O)N[C@@H](Cc1ccccc1)C(=O)N[C@@H](Cc1c[nH]c2ccccc12)C(=O)N[C@@H](CCC(N)=O)C(=O)N[C@@H](CCC(=O)O)C(=O)N[C@@H](CCC(=O)O)C(=O)N[C@@H](CC[S+](C)[O-])C(=O)N[C@@H](CCC(=O)O)C(=O)N[C@@H](CC(C)C)C(=O)N[C@@H](Cc1ccc(O)cc1)C(=O)N[C@@H](CCCNC(=N)N)C(=O)N[C@@H](CCC(N)=O)C(=O)N[C@@H](CCCCN)C(=O)N[C@H](C(=O)O)C(C)C)C(C)C (stereo partly drawn) [G-KV21] (HELM PEPTIDE1{G.F.L.S.K.S.L.V.F.W.Q.E.E.[CS(=O)CC[C@H](N[*:1])C(=O)[*:2]].E.L.Y.R.Q.K.V}$$$$V2.0) | significantly inhibit the cytokine release | – | significantly inhibit the tumor growth | inhibit production of cytokines by LPS-stimulated macrophages | up to 95% | –
3 | CC(C)C[C@H](NC(=O)[C@H](Cc1ccccc1)NC(=O)CN)C(=O)N[C@@H](CO)C(=O)N[C@@H](CCCCN)C(=O)N[C@@H](CO)C(=O)N[C@@H](CC(C)C)C(=O)N[C@H](C(=O)N[C@@H](Cc1ccccc1)C(=O)O)C(C)C [GF9] (H-GFLSKSLVF-OH) | – | – | – | – | – | non-toxic and well-tolerated in mouse litters
